Where “and” joins values, the source holds several entries; their conditions need not be identical. Equal values may be shown once.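 96-well plates; 48 h exposure; 5 concentrations. Endpoints by linear interpolation between flanking doses. Not reached: highest tested concentration assigned. GI50: concentration for 50% inhibition of growth. TGI denotes the concentration required for complete inhibition of growth.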 Where a SMILES comes first, the peptide text is derived from it. Side-chain parts run from the residue outwards. [ ]: non-standard residue; d: D form. The star is where a group is joined. X28 = COC1=CC(=O)N(C(=O)[C@@H](O*)C(C)C)[C@H]1Cc1ccccc1; NMeL = CN[C@@H](CC(C)C)C(=O)O; Cbz = O=C(OCc1ccccc1)*; Boc = CC(C)(C)OC(=O)*
What was measured:
Assay in all cases: NCI tumour cell line growth inhibition, 48 h
[1] = test system: 786-0 renal
[2] = test system: HCT-116 colon
[3] = test system: HL-60(TB) leukemia
[4] = test system: HOP-62 NSCLC
[5] = test system: K-562 leukemia
[6] = test system: NCI-H23 lung
[7] = test system: NCI/ADR-RES ovarian
[8] = test system: RXF 393 renal
[9] = test system: SNB-75 CNS
[10] = test system: SR leukemia

| SMILES | TGI [1] [µM] | TGI [2] [µM] | TGI [3] [µM] | TGI [4] | TGI [5] [µM] | TGI [6] [µM] | TGI [7] [µM] | TGI [8] [µM] | TGI [9] [µM] | TGI [10] [µM] | GI50 [4] |
| --- | --- | --- | --- | --- | --- | --- | --- | --- | --- | --- | --- |
| CC1(C)C(C(=O)OC(C#N)c2cccc(OCC(=O)OCc3ccccc3)c2)C1(C)C (stereo not drawn) | > 100 | > 100 | 22.9 | > 100 µM | > 100 | > 100 | > 100 | > 100 | > 100 | – | – |
| CCN(CC)CCNc1ccc2nnn3c4ccc(OC(C)=O)cc4c(=O)c1c23 | > 38.1 | > 37.5 | – | 12.5 µM | > 19.8 | 18.9 | 19.1 | 6.19 | – | – | – |
| COc1cc(C2c3cc4c(cc3OC(N3CCOCC3)C2C)OCO4)cc(OC)c1OC (stereo not drawn) | 28.6 | 12.7 | – | 52.8 µM | > 54.3 | 18.2 | 2.01 | 1.22 | > 48.2 | > 100 | – |
| C/C=C/COc1cc(NC(=S)c2ccoc2C)ccc1OC | > 100 | > 100 | > 100 | > 100 µM | – | > 100 | > 100 | > 100 | > 100 | > 100 | – |
| CCOC(=O)CCc1c(C)c2c(O)cc(O)cc2oc1=O | – | > 100 | > 100 | > 100 µM | > 100 | > 100 | > 100 | > 100 | > 100 | – | – |
| O=C(O)C1Cc2ccccc2OC1=O (stereo not drawn) | > 100 | > 100 | – | > 100 µM | > 100 | > 100 | > 100 | > 100 | – | > 100 | – |
| CN(c1ccccc1Cl)S(=O)(=O)c1ccccc1 | > 100 | > 100 | > 100 | > 100 µM | > 100 | > 100 | > 100 | – | > 100 | > 100 | – |
| CCCCCCCCCCCCCCCCCCNC(=S)/N=C/c1c(O)cc(C)oc1=O | > 100 | > 100 | > 100 | > 100 µM | – | 47.8 | > 100 | – | 49.3 | – | – |
| CC(C)CC(NC(=O)OCc1ccccc1)C(=O)NCCCCC(NC(=O)C(CCCCNC(=O)C(CC(C)C)NC(=O)OCc1ccccc1)NC(=O)C(CCCCNC(=O)C(CC(C)C)NC(=O)OCc1ccccc1)NC(=O)C(CCCCNC(=O)C(CC(C)C)NC(=O)OCc1ccccc1)NC(=O)OC(C)(C)C)C(=O)O (stereo not drawn) (Boc-K([Leu-Cbz])K([Leu-Cbz])K([Leu-Cbz])K([Leu-Cbz])-OH; configuration not given here) | > 25 | > 25 | > 25 | > 25 µM | > 25 | > 25 | – | – | > 25 | > 25 | – |
| COc1ccc(-c2c(C(C)=O)c(-c3ccccc3)n(C3OC(COC(C)=O)C(OC(C)=O)C(OC(C)=O)C3OC(C)=O)c(=S)c2C#N)cc1O (stereo not drawn) | > 100 | > 100 | > 100 | 45.6 µM and > 100 µM | > 100 | > 100 | > 100 | > 100 | – | > 100 | 20.1 µM and > 100 µM |
| CCCCCCCCC[C@@H]1C[C@@H]2CCC3C(C(=O)OCCCCNC(=O)OCc4ccccc4)=C(C)NC(=N1)N32 (stereo partly drawn) | 3.2 | 10 | 4.01 | 10.3 µM | 3.83 | 6.78 | 7 | 7.34 | 16.9 | – | – |
| C/C(=N\Nc1ncnc2ccccc12)c1ccccn1 | 12.7 | 13.9 | 10.7 | 1.07 µM | > 4.64 | 16.4 | 0.551 | 17.3 | 39.7 | – | – |
| CCOc1ccc(C(c2c(O)c3ccccc3oc2=O)c2c(O)c3ccccc3oc2=O)cc1 | > 100 | > 100 | 50.2 | > 100 µM | > 100 | > 100 | > 100 | – | – | 58.7 | – |
| N#CCCCCC12C3C(=O)N(c4ccccc4)C(=O)C3ON1O[C@@H]1C(=O)N(c3ccccc3)C(=O)[C@@H]12 (stereo partly drawn) | > 100 | – | > 100 | > 100 µM | > 100 | > 100 | > 100 | – | – | – | – |
| CCOC(=O)CC(=Nc1cc(C)on1)N(CC)CC | > 100 | > 100 | – | > 100 µM | > 100 | > 100 | – | – | > 100 | > 100 | – |
| Cc1ccc(C(=O)NC(C)C)cc1N=NN(C)C | > 100 | > 100 | – | > 100 µM | – | > 100 | – | – | – | – | – |
| O=C(Nc1cc([N+](=O)[O-])cc([N+](=O)[O-])c1)OC1C2CCC1C1OC1C2 (stereo not drawn) | > 50 | > 50 | > 50 | > 50 µM | > 50 | > 50 | – | > 50 | > 50 | – | – |
| COC1=CC(=O)N(C(=O)[C@@H](OC(=O)[C@@H]2CCCN2C(=O)[C@@H]2CCCN2C(=O)[C@H](CC(C)C)N(C)C(=O)[C@@H](NC(=O)[C@@H](NC(=O)OCc2ccccc2)C(C)C)C(C)C)C(C)C)[C@H]1Cc1ccccc1 (Cbz-VV[NMeL]PP-X28) | > 100 | > 100 | > 100 | > 100 µM | > 100 | > 100 | > 100 | 38.9 | 9.27 | – | – |
| COc1ccc2c(c1)Cc1c-2[nH]c2cc3c(cc2c1=O)OCO3 | > 100 | 23.2 | 29.2 | 45.1 µM | > 100 | 48.2 | – | 19.5 | – | – | – |
| Cc1noc(C)c1N=Nc1ccc2nonc2c1N | > 100 | > 100 | > 100 | > 100 µM | – | > 100 | > 100 | > 100 | 42.2 | > 100 | – |
| CCN(CC)CCNC(=O)c1cc2cc(NC(=O)c3cc4cc(NC(=O)c5cc6cc([N+](=O)[O-])ccc6[nH]5)ccc4[nH]3)ccc2[nH]1 | > 100 | – | – | > 100 µM | > 100 | > 100 | > 100 | > 100 | > 100 | 14.4 | – |
| Cc1cc(O)c(/C=N/C(=O)NN)c(=O)o1 | > 100 | > 100 | – | > 100 µM | – | > 100 | > 100 | > 100 | > 100 | – | – |
| C[n+]1c(-c2ccc(/C=N/Nc3n[nH]c(=S)n3N/N=C/c3ccc(-c4cn5ccccc5[n+]4C)cc3)cc2)cn2ccccc21 | > 100 | > 100 | > 100 | > 100 µM | > 100 | – | > 100 | – | > 100 | > 100 | – |
